Seven molecules from patent US8182983B2, “Method for determining immune system affecting compounds” (Canimguide Therapeutics AB, priority 2002, dated 2012) can be followed below.

Common to all, as to assay type: cell-based, human
The subject of series [1] is PBMC from healthy donors. Description: IL-2 induced proliferation of PBMC in the presence of collagen/collagen fragments. The conditions noted are these: collagen 26 ug/ml, PBMCs from healthy donors, autologous serum. Here is the method: 100 μl of RPMI1640 supplemented with 200 IU/ml penicillin, […] streptomycin, 4 mM L-glutamine (all from Sigma Chemical Co. MO, US) and 20% heat-inactivated human serum (autologous or from cancer patients) were added to uncoated, HSA or HSA/IgG coated tissue culture microtiter plates. PBMC, isolated from healthy individuals or patients with metastatic renal cell carcinoma, were diluted in RPMI/2%1-ISA at a concentration of 5×10^5/ml and 100 μl were added to the microtiter wells. Interleukin-2 (IL-2, Proleukin, Chiron, NL), at a final concentration of 120 IU/well, was added to some wells. Cells were cultured for 7 days in a humidified, 5% CO2-atmosphere at 37° C.
Proliferation was assayed by incorporation of 1.6 μCi/well of [3H]-thymidine (Amersham Int., UK) during the last 18 hrs. Mean values of dpm (disintegrations per minute) of triplicates were used for the calculations.
Purified collagen from human skin (Sigma) at a concentration of 100 µg/ml was incubated in 100 mM Tris-HCl, pH 7.6, containing 0.15 M NaCl, 10 mM CaCl2 and 0.05% Brij35 over night at 37° C. The buffer was then exchanged to RPMI1640 by gel filtration through a Sephadex-G25 (PD-10) column (Amersham Biosciences) and filtered through a 0.45 μm Millex-HV syringe filter (Millipore) and frozen at −70° C. until use. […]

In series [2] the test system is PBMC from healthy volunteers. Description: Inhibition of IL-1Ra production by PBMC with Tosyl. Here is the method: Monokines were assessed by ELISA using the DuoSet ELISA development system for human IL-6, TNF-α or IL-1β (R&D Systems Europe, Ltd. UK) following the manufacturer's recommended procedures. Lower limit of detection was […] for IL-6, […] for TNF-α and […] for IL-1β. IL-10 was detected with a kit from Diaclone Research, FR. The lower limit of detection was […]. Human IL-1Ra was detected with a quantitative sandwich ELISA using a monoclonal mouse anti-human IL-1Ra as capture antibody and a biotinylated goat anti-human IL-1Ra as developing antibody (both from R&D Systems). […] Following incubation for 1 hr at room temperature, plates were washed and the amount of bound IL-1Ra was measured by hydrolysis of paranitrophenyl phosphate (Sigma). Optical density was read at dual wavelengths, 405 nm and 570 nm, respectively, in a Multiscan EX microplate reader (Labsystems). […]
Inhibition of IL-1Ra production by PBMC with Tosyl PBMC (2×10^6/ml) from healthy volunteers were pre-incubated with various concentrations of Na-p-Tosyl-L-lysine chloromethyl ketone (Tosyl, Sigma) diluted in RPMI1640/2% HSA for 30 minutes at 37° C. after which the cell suspensions were washed three times in RPMI/2% HSA. […] Viability of cultured PBMCs were also assessed after 24 hrs by Trypan blue exclusion and found to be 100%. […]

Series [3] relates to PBMC from RCC patients. In words: TNF-α in PHA stimulated PBMC cultures with chlorambucil. The conditions noted are these: chlorambucil 1 μg/ml, 72 hours, responders vs non-responders to interleukin-2. Here is the method:
PHA stimulated proliferation of PBMC with and without chlorambucil Venous blood was drawn at the indicated time points from RCC patients undergoing IL-2 (Proleukin, Chiron, NL) therapy. Mononuclear cells were isolated by Ficoll-Isopaque (Pharmacia, SE) density gradient centrifugation. 5×10^4 PBMC in a final volume of 200 μl were seeded into round-bottomed microtiter plates (Corning Inc. NY, US) in culture medium consisting of RPMI 1640 supplemented with 100 IU/ml Penicillin, 100 μg/ml Streptomycin (Flow laboratories) and 10% heat-inactivated, autologous fresh serum. […]
PHA-stimulated cultures with or without chlorambucil (1 µg/ml) were set up in parallel as described above for mitogen-stimulated cultures. […] The amount of TNF-α in the SNs was evaluated with an ELISA kit from Immunotech S.A., FR, according to the manufacturer's instructions. […]
Comparisons between the proliferative response to PHA in different groups or at different test occasions were done on logarithmated mean values of dpm of triplicates using unpaired t-test. For the determination of the effect of addition of CHL on the proliferative response of PHA-stimulated PBMCs, a modulation index (MI) was calculated according to the following formula: MI=log(dpm PHA+drug/dpm PHA).

Series [4] has as its system normal PBMCs. In words: Fragmentation of IgG and serum albumin using MMPs, IL-6 inducing activity of supernatants. The conditions noted are these: supernatants tested on normal PBMCs; for release of fragments inducing or modulating IL-6 production from IgG: IgG incubated with MMP; for release of fragments inducing or modulating IL-6 production from albumin: serum albumin incubated with MMP. As for the experimental part: MMP-1, -2, -13 (R&D Systems) and MMP-3 and -7 (Chemicon, UK) were activated according to instructions of the manufacturer. […] The mixtures were incubated for 5-20 hours at 37° C. Parallel incubations of MMP or the substrates alone, in respective buffer, were set up as controls. The mixtures were buffer exchanged to RPMI as described previously and filtered through a 0.45 μm Millex-HV syringe filter (Millipore, MA, US). Storing of mixtures, when needed, was performed at −70° C. until analysing by gel-electrophoresis and testing for monokine inducing activity in fresh, normal PBMC as described above.

In series [5] the test system is normal PBMCs. In words: Homogenised, washed tumour tissue incubated with MMP-2, IL-6 inducing activity. The conditions noted are these: MMP-2 5 ng/ml; 20 hours at 37° C. As for the experimental part: The collection, washing and homogenisation of tumour cryo sections (3×300 μm) were carried out as described above. The pelleted tumour tissue was suspended in 0.5 ml cold RPMI/PEST. MMP-2 (R&D Systems, UK), activated according to instructions from the manufacturer, was added at a final concentration of 5 ng/ml. The tumour tissue suspension was incubated with MMP-2 for 20 h at 37° C. and the supernatant collected after centrifugation. Parallel incubation of tumour tissue with no addition of MMP-2 was set up as a control. The mixtures were buffer exchanged to RPMI by gel filtration through a Sephadex-G25 (PD-10) column (Amersham Biosciences, SE) and filtered through a 0.45 μm Millex-HV syringe filter (Millipore, MA, US). Finally, the mixtures were analysed by gel-electrophoresis and tested for monokine inducing activity in fresh normal PBMC as described above.

Regarding collagen, the “effect on IL-2 induced proliferation” value in series [1] is given as “strongly inhibitory effect”; in series [1] (listed as collagen/collagen fragments), “strong inhibitory effect was demonstrated in two out of three experiments”.
As for `Cc1ccc(S(=O)(=O)NC(CCCCN)C(=O)CCl)cc1` [Tosyl, Na-p-Tosyl-L-lysine chloromethyl ketone], the “Viability of cultured PBMCs by Trypan blue exclusion” value in series [2] (after 24 hrs, PBMC pre-incubated with Tosyl) was 100%. In addition, the “effect on production of IL1Ra” value in series [2] (non-toxic concentrations, PBMC from healthy individuals (n=9), plates pre-coated with HSA or HSA/IgG) was “significantly reduced production”.
For `O=C(O)CCCc1ccc(N(CCCl)CCCl)cc1` [chlorambucil, Chlorambucil], the “TNF-α production in PHA stimulated cultures with chlorambucil” value in series [3] is on record as “in non-responders TNF-α production is more stimulated than in responders”.
Turning to “MMP-3: matrix metalloproteinase (Chemicon), activated”, in series [4], the “release of fragments inducing or modulating IL-6 production from IgG” value (shortened to “release … from IgG”) is “released active fragments” and the “release of fragments inducing or modulating IL-6 production from albumin” value (“release … from albumin” below) is listed as “released active fragments”.
With “MMP-1: matrix metalloproteinase (R&D Systems), activated”, the “release … from albumin” value in series [4] is “released active fragments”.
Regarding “MMP-7: matrix metalloproteinase (Chemicon), activated”, the “release … from IgG” value in series [4] is on record as “released active fragments”.

B1: MMP-2: matrix metalloproteinase (R&D Systems), activated (protein, UniProt P08253 110-660, looked up)
72 kDa type IV collagenase: YNFFPRKPKWDKNQITYRIIGYTPDLDPETVDDAFARAFQVWSDVTPLRFSRIHDGEADIMINFGRWEHGDGYPFDGKDGLLAHAFAPGTGVGGDSHFDDDELWTLGEGQVVRVKYGNADGEYCKFPFLFNGKEYNSCTDTGRSDGFLWCSTTYNFEKDGKYGFCPHEALFTMGGNAEGQPCKFPFRFQGTSYDSCTTEGRTDGYRWCGTTEDYDRDKKYGFCPETAMSTVGGNSEGAPCVFPFTFLGNKYESCTSAGRSDGKMWCATTANYDDDRKWGFCPDQGYSLFLVAAHEFGHAMGLEHSQDPGALMAPIYTYTKNFRLSQDDIKGIQELYGASPDIDLGTGPTPTLGPVTPEICKQDIVFDGIAQIRGEIFFFKDRFIWRTVTPRDKPMGPLLVATFWPELPEKIDAVYEAPQEEKAVFFAGNEYWIYSASTLERGYPKPLTSLGLPPDVQRVDAAFNWSKNKKTYIFAGDKFWRYNEVKKKMDPGFPKLIADAWNAIPDNLDAVVDLQGGGHSYFFKGAYYLKLENQSLKSVKFGSIKSDWLGC
modifications: activated
As to B1, in series [4], the “release … from IgG” value is on record as “released active fragments” and the “release … from albumin” value was “released active fragments”. Further, in series [5], the “release of IL-6 inducing activity from washed tumour tissue” value was “modulated the release of IL-6 inducing activity”.
